In patent US11300640B2, “Protein reporters for ultrasensitive detection methods” (The Trustees of the University of Pennsylvania, priority 2017, dated 2022):
Entries after “also recorded” stand apart in the source; their conditions may differ.

Experiments:
MBP = MBP (Escherichia coli, UniProt P0AEX9); conditions: binding to MBP; cited from earlier work
[1] = 129Xe hyper-CEST NMR of GFP-RBP mutants
Procedure: To evaluate whether GFP-RBP(L19A) reports any Xe hyper-CEST contrast, a hyper-CEST z-spectrum was acquired from 10 μM GFP-RBP(L19A) in the presence and absence of ribose. Multiple selective Dsnob-shaped saturation pulses were scanned over the chemical shift range of 93-358 ppm in 5 ppm steps, and the ^129Xe(aq) signal was measured as a function of saturation pulse offset (FIG. 55).
To assess the detection sensitivity of GFP-RBP(L19A), time-dependent saturation transfer experiments were performed by measuring Xe(aq) polarization as a function of saturation time. Shaped saturation pulses were applied at the chemical shift of Xe@RBP(L19A)closed, and the residual aqueous ^129Xe signal after saturation transfer was measured as an on-resonance CEST response. Saturation frequencies of Dsnob-shaped pulses were positioned at +42.5 and −42.5 ppm, referenced to the Xe(aq) peak, for on- and off-resonance, respectively. The pulse length was 1.727 ms, and the field strength was 170 μT. The normalized difference between on- and off-resonance signals was represented by the saturation contrast.

[2] = parameters: Ka of Xe binding / Ka for Xe binding to MBP+βCD: unit not given here; conditions: cited from earlier work; for xenon association constant: room temperature
BL21(DE3) E. coli = assay: Hyper-CEST of MBP expressed in E. coli (pET-MBP plasmid); format: cell-based; conditions: for Contrast, corrected: contrast of non-induced E. coli subtracted; for T1off / T1on: OD600=9; for saturation contrast: OD600=9, +95/−95 ppm
Source text: All cell solutions were normalized to OD600=9. Saturation frequencies of Dsnob-shaped pulses were positioned at +95 ppm and −95 ppm, referenced to the Xe(aq) peak, for on- and off-resonance, respectively. Pulse length, τpulse=1.0496 ms; field strength, B1,max=279 μT. Both on-resonance and off-resonance data were fitted with first-order exponential decay curves.

[3] = MBP fluorescence quenching by maltose; format: binding; conditions: 4 μM MBP, 400 μM maltose, 20 mM HEPES pH 7.4, excitation 280 nm
Procedure: Fluorescence spectra were obtained on a Tecan Infinite M1000 PRO microplate reader using black 96 well flat-bottom microplates (Grenier Bio-One). […] Excitation was at 280 nm and emission was scanned from 300 to 400 nm in 1 nm increments. All fluorescence assays were performed in triplicate and averaged. Fluorescence spectra were background corrected by subtracting the fluorescence spectrum of the well solution in the absence of protein.

[4] = 129Xe hyper-CEST NMR of purified MBP and MBP mutants; conditions: for T1off / T1on / saturation contrast: 100 nM WT MBP
Source text: Briefly, HP ^129Xe was generated using the spin-exchange optical pumping (SEOP) method with a home-built ^129Xe polarizer based on the IGI.Xe.2000 commercial model by GE. A Shark 65 W tunable ultra-narrow band diode laser (OptiGrate) set to 795 nm was used for optical pumping of Rb vapor. A gas mixture of 88% helium, 10% nitrogen, and 2% natural abundance xenon (Linde Group, N.J.) was used as the hyperpolarizer input. ^129Xe hyperpolarization level was roughly 10-15%. For each data point in the hyper-CEST z-spectra, HP ^129Xe was bubbled into the NMR tube through capillaries for 20 seconds, followed by a 3-second delay to allow bubbles to collapse. A Dsnob saturation pulse with 690 Hz bandwidth was used. Pulse length tpulse=3.80 ms, field strength B1, max=77 μT, number of pulses npulse=400, saturation time Tsat=1.52 s. NMR experiments were performed using a Bruker BioDRX 500 MHz NMR spectrometer and 10-mm PABBO probe, at 300 K. A 900 hard pulse of this probe has a pulse length of 22 μs. Unless otherwise noted, the protein concentration used was 80 μM, with 0.1% (v/v) Pluronic L81 (Aldrich) added to mitigate foaming.
Briefly, hyperpolarized (hp)^129Xe was generated using the spin-exchange optical pumping (SEOP) method with a home-built ^129Xe polarizer based on the IGI.Xe.2000 commercial model by GE. A Shark 65 W tunable ultra-narrow band diode laser (OptiGrate) set to 795 nm was used for optical pumping of Rb vapor. A gas mixture of 88% helium, 10% nitrogen, and 2% natural abundance xenon (Linde Group, N.J.) was used as the hyperpolarizer input. ^129Xe hyperpolarization level was roughly 10-15%. For each data point in the hyper-CEST z-spectra, hp ^129Xe was bubbled into the NMR tube through capillaries for 20 s, followed by a 3-s delay to allow bubbles to collapse. A d-SNOB saturation pulse with 690 Hz bandwidth was used. Pulse length, tpulse=3.80 ms; field strength B1,max=77 μT; number of pulses, npulse=400; saturation time, Tsat=1.52 s. NMR experiments were performed using a Bruker BioDRX 500 MHz NMR spectrometer and 10-mm PABBO probe, at 300 K. A 900 hard pulse of this probe has a pulse length of 22 μs. Unless otherwise noted, the protein concentration used was 80 μM, with 0.1% (v/v) Pluronic L81 (Aldrich) added to mitigate foaming. […] Pulse length, Tpulse=1.0496 ms; field strength, B1max=279 μT. Both on-resonance and off-resonance data were fitted with first-order exponential decay curves.

[5] = RBP from E. coli; read-out: Kd for ribose; cited from earlier work
[6] = bla hydrolase activity assay pre- and post-CEST; format: biochemical; conditions: 5 nM enzyme, 450 μM nitrocefin, 50 mM Tris pH 7.4, 5% DMSO
Procedure: The hydrolysis of nitrocefin was monitored at A482 using an Infinite M1000 Pro plate reader (Tecan).
Product formation was monitored at A482 using an Infinite M1000 Pro plate reader (Tecan). The assays were performed in triplicate for pre- and post-hyper CEST bla(I263A) and bla(I279N) samples.

[7] = induced E. coli with maltose, 6±4 μM MBP
[8] = induced E. coli without maltose, 15±6 μM MBP

OC[C@H]1O[C@@H]2O[C@H]3[C@H](O)[C@@H](O)[C@@H](O[C@H]4[C@H](O)[C@@H](O)[C@@H](O[C@H]5[C@H](O)[C@@H](O)[C@@H](O[C@H]6[C@H](O)[C@@H](O)[C@@H](O[C@H]7[C@H](O)[C@@H](O)[C@@H](O[C@H]8[C@H](O)[C@@H](O)[C@@H](O[C@H]1[C@H](O)[C@H]2O)O[C@@H]8CO)O[C@@H]7CO)O[C@@H]6CO)O[C@@H]5CO)O[C@@H]4CO)O[C@@H]3CO [βCD, β-cyclodextrin]
Kd (MBP): 1800 nM

GFP-RBP(L19A): fusion of GFP and ribose binding protein with L19A mutation (SEQ ID NO: 46)
saturation contrast (maximum) ([1]; 100 nM GFP-RBP(L19A), pulses at +42.5/−42.5 ppm): 0.30±0.01 | saturation response in z-spectrum ([1]; 10 μM protein, unliganded (no ribose)): only a single saturation response

hemoglobin [reference compound]
xenon association constant [2]: around 200 M^−1

maltose binding protein [MBP]
Contrast per μM MBP (BL21(DE3) E. coli; E. coli with maltose): 0.05 ± 0.03 | Contrast, corrected (BL21(DE3) E. coli; E. coli with maltose): 0.28 | Contrast per μM MBP (BL21(DE3) E. coli; E. coli without maltose): 0.013 ± 0.005 | Contrast, corrected (BL21(DE3) E. coli; E. coli without maltose): 0.19 | increase in observed CEST contrast generated by maltose (BL21(DE3) E. coli; background subtracted, normalized to MBP concentration): 3.7 fold | T1off (BL21(DE3) E. coli; [7]): 16.7 ± 0.6 s | T1on (BL21(DE3) E. coli; [7]): 4.94 ± 0.10 s | saturation contrast (BL21(DE3) E. coli; [7]): 0.60±0.02 | T1off (BL21(DE3) E. coli; [8]): 9.3 ± 0.3 s | T1on (BL21(DE3) E. coli; [8]): 5.35 ± 0.17 s | saturation contrast (BL21(DE3) E. coli; [8]): 0.40±0.06 | magnitude of fluorescence quenching by maltose [3]: 22% | Ka for Xe binding to MBP+maltose ([2]; 1H-15N HSQC NMR): too low to measure | Ka for Xe binding to MBP+βCD ([2]; 1H-15N HSQC NMR): 20±10 | Ka of Xe binding ([2]; MBP in the open conformation, HSQC NMR): 20±10 | Xe binding affinity (association constant) ([2]; experimentally determined literature values): 20 ± 10 M⁻¹ | T1off ([4]; 0 μM maltose): 44 ± 3 s | T1on ([4]; 0 μM maltose): 41 ± 2 s | saturation contrast ([4]; 0 μM maltose, pH 7.2 PBS, 300 K): 0.022±0.004 | T1off ([4]; 0.1 μM maltose): 41 ± 3 s | T1on ([4]; 0.1 μM maltose): 34 ± 1 s | saturation contrast ([4]; 0.1 μM maltose): 0.050±0.007 | T1off ([4]; 0.3 μM maltose): 43 ± 1 s | T1on ([4]; 0.3 μM maltose): 35 ± 1 s | saturation contrast ([4]; 0.3 μM maltose): 0.05±0.01 | T1off ([4]; 0.5 μM maltose): 39 ± 1 s | T1on ([4]; 0.5 μM maltose): 26.3 ± 0.9 s | saturation contrast ([4]; 0.5 μM maltose): 0.11±0.01 | T1off ([4]; 1 μM maltose): 50 ± 1 s | T1on ([4]; 1 μM maltose): 32.7 ± 0.7 s | saturation contrast ([4]; 1 μM maltose): 0.118±0.007 | T1off ([4]; 3 μM maltose): 46 ± 2 s | T1on ([4]; 3 μM maltose): 26 ± 1 s | saturation contrast ([4]; 3 μM maltose): 0.161±0.004 | T1off ([4]; 1 mM maltose): 55 ± 3 s | T1on ([4]; 1 mM maltose): 21.8 ± 0.6 s | saturation contrast ([4]; 1 mM maltose): 0.26±0.01 | T1on ([4]; 1 mM maltose, listed as WT MBP): 21.8 ± 0.7 s | lowest maltose concentration readily detected (detection threshold) ([4]; 100 nM protein sensor): 100 nM | downfield saturation response in z-spectrum ([4]; 80 μM MBP, 1 mM β-cyclodextrin): no downfield Xe@MBP peak; also recorded: no downfield saturation response | saturation response in z-spectrum ([4]; 80 μM protein, without maltose): only a single saturation response

myoglobin [reference compound]
xenon association constant [2]: around 200 M^−1

B1: ribose binding protein (protein)
chain: KDTIALVVSTLNNPFFVSLKDGAQKEADKLGYNLVVLDSQNNPAKELANVQDLTVRGTKILLINPTDSDAVGNAVKMANQANIPVITLDRQATKGEVVSHIASDNVLGGKIAGDYIAKKAGEGAKVIELQGIAGTSAARERGEGFQQAVAAHKFNVLASQPADFDRIKGLNVMQNLLTAHPDVQAVFAQNDEMALGALRALQTAGKSDVMVVGFDGTPDGEKAVNDGKLAATIAQLPDQIGAKGVETADKVLKGEKVQAKYPVDLKLVVKQ
modifications: Native amino acid sequence of RBP for expression in E. coli
Kd [5]: 130 nM

B2: RBP(L19A): ribose binding protein having a L19A mutation (SEQ ID NO: 44) (protein)
chain: KDTIALVVSTLNNPFFVSAKDGAQKEADKLGYNLVVLDSQNNPAKELANVQDLTVRGTKILLINPTDSDAVGNAVKMANQANIPVITLDRQATKGEVVSHIASDNVLGGKIAGDYIAKKAGEGAKVIELQGIAGTSAARERGEGFQQAVAAHKFNVLASQPADFDRIKGLNVMQNLLTAHPDVQAVFAQNDEMALGALRALQTAGKSDVMVVGFDGTPDGEKAVNDGKLAATIAQLPDQIGAKGVETADKVLKGEKVQAKYPVDLKLVVKQ
modifications: Amino acid sequence of RBP(L19A)
xenon binding affinity, closed conformation ([2]; 1H-15N HSQC NMR): 40 ± 20 M⁻¹ | xenon binding affinity, open conformation ([2]; 1H-15N HSQC NMR): 70 ± 30 M⁻¹

B3: I263A: bla having an I263A mutation (SEQ ID NO: 5) (protein)
chain: MSIQHFRVALIPFFAAFCLPVFAHPETLVKVKDAEDQLGARVGYIELDLNSGKILESFRPEERFPMMSTFKVLLCGAVLSRVDAGQEQLGRRIHYSQNDLVEYSPVTEKHLTDGMTVRELCSAAITMSDNTAANLLLTTIGGPKELTAFLHNMGDHVTRLDRWEPELNEAIPNDERDTTMPAAMATTLRKLLTGELLTLASRQQLIDWMEADKVAGPLLRSALPAGWFIADKSGAGERGSRGIIAALGPDGKPSRIVVAYTTGSQATMDERNRQIAEIGASLIKHW
modifications: TEM-1 beta-lactamase with a I263A mutation (mutation at residue 259)
Initial Rate, after CEST ([6]; listed as bla(I263A)): 0.153±0.009 A482 min^−1 | Initial Rate, before CEST ([6]; listed as bla(I263A)): 0.142±0.002 A482 min^−1

B4: I279N: bla having an I279N mutation (SEQ ID NO: 6) (protein)
chain: MSIQHFRVALIPFFAAFCLPVFAHPETLVKVKDAEDQLGARVGYIELDLNSGKILESFRPEERFPMMSTFKVLLCGAVLSRVDAGQEQLGRRIHYSQNDLVEYSPVTEKHLTDGMTVRELCSAAITMSDNTAANLLLTTIGGPKELTAFLHNMGDHVTRLDRWEPELNEAIPNDERDTTMPAAMATTLRKLLTGELLTLASRQQLIDWMEADKVAGPLLRSALPAGWFIADKSGAGERGSRGIIAALGPDGKPSRIVVIYTTGSQATMDERNRQNAEIGASLIKHW
modifications: TEM-1 beta-lactamase with a I279N mutation (mutation at residue 275)
Initial Rate, after CEST [6]: 0.047 ± 0.002 A482 min^−1 | Initial Rate, before CEST [6]: 0.044 ± 0.003 A482 min^−1
